One molecule from ChEMBL document CHEMBL3638847, “Substituted piperidine compounds and their use as orexin receptor modulators” (2015) can be followed below.

Broadly, the Ki is a dissociation constant, usually derived from enzyme kinetics or from competition with a known ligand.

Assay [1] deals with T1, Orexin receptor type 2 (Homo sapiens, UniProt O43614).
T1 sequence (O43614 whole entry): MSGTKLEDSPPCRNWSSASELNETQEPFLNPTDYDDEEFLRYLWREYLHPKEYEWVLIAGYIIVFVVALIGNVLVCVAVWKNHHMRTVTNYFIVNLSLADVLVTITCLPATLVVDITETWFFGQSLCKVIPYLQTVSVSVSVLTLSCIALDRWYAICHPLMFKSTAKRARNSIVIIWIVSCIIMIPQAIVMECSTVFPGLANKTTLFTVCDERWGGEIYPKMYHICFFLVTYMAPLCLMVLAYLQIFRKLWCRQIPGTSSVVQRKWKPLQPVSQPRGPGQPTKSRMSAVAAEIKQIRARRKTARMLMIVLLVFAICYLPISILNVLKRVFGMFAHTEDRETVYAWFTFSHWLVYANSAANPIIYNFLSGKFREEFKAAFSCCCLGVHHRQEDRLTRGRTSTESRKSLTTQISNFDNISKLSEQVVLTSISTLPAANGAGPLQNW
Briefly: Radioligand Binding Assay: HEK293 stably expressing human orexin 2 receptor (Genebank accession numberNM_001526) were grown to confluency in DMEM (Hyclone, cat # SH30022) , 10%FBS, IX Pen/Strep, IX NaPyruvate, 10 mM HEPES, 600 ug/ml G418 media on 150 cm2 tissue culture plates, washed with 5 mM EDTA in PBS (HyClone Dulbecco's Phoshpate Buffered Saline IX with Calcium and Magnesium, Cat # SH30264.01, hereafter referred to simply as PBS) and scraped into 50 ml tubes. After centrifugation (2K xG, 5 min at 4°C), the supernatant was aspirated and the pellets frozen and stored at -80°C. Cells were resuspended in PBS in the presence of 1 tablet of protease inhibitor cocktail (Roche, Cat. #11836145001) per 50 mL. Each cell pellet from a 15 cm plate was resuspended in 10 mL, stored on ice, and homogenized for 45 sec just prior to addition to the reactions. Competition binding experiments in 96 well polypropylene plates were performed using [3H]-EMPA (Moraveck Corporation, specific activity = 29.6 Ci/mmol).

For assay [2], the target named is T2, Orexin/Hypocretin receptor type 1 (Rattus norvegicus, UniProt P56718).
T2 sequence (P56718 whole entry): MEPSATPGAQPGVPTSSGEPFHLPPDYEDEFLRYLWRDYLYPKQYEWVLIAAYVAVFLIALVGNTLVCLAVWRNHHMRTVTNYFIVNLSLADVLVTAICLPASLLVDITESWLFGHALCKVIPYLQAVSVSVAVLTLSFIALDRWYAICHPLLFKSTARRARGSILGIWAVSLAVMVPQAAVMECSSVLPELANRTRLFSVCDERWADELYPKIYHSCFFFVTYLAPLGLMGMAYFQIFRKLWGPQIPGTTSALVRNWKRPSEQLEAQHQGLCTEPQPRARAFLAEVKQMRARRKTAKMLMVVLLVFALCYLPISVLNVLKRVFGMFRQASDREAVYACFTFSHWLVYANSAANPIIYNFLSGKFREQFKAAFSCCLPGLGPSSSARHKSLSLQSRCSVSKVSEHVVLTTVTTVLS
Put plainly: (§1) Radioligand Binding Assay: Human Embryonic Kidney 293 cells (HEK293) stably expressing rat orexin 1 receptor(Genebank accession number NM_001525) or […] (CHO) stably expressing human orexin 1 receptor (Genebank accession number […]) were grown to confluency in DMEM (Hyclone, cat # SH30022), 10% FBS, IX Pen/Strep, IX sodium pyruvate, 10 mM HEPES, 600 ug/mL G418 and DMEM/F12 (Gibco, Cat #1 1039), 10%FBS, IX Pen/Strep, 600 ug/mL G418 media, respectively on 150 cm2 tissue culture plates, washed with 5 mM EDTA in PBS (HyClone Dulbecco's Phoshpate Buffered Saline IX with Calcium and Magnesium, Cat # SH30264.01, hereafter referred to simply as PBS) and scraped into 50 ml tubes. After centrifugation (2K xG, 5 min at 4 C), the supernatant was aspirated and the pellets frozen and stored at -80C. Cells were resuspended in PBS in the presence of 1 tablet of protease inhibitor cocktail (Roche, Cat. #1 1836145001) per 50 mL. Each cell pellet from a 15 cm plate was resuspended in 10 mL. It counts as cell-based.

In assay [3] the target is T3, Orexin/Hypocretin receptor type 1 (Homo sapiens, UniProt O43613).
T3 sequence (O43613 whole entry): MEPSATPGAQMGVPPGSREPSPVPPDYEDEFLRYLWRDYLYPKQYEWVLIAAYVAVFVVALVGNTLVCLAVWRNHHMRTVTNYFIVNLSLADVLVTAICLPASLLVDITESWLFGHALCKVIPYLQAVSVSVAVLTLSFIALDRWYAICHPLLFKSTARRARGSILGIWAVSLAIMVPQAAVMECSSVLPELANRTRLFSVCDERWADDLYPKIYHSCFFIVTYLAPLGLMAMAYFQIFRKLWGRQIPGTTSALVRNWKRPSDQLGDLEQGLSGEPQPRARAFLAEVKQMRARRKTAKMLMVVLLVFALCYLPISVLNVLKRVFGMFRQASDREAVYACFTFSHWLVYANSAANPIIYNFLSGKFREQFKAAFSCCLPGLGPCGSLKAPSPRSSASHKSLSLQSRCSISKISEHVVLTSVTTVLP
Described as §1. It counts as cell-based.

On to `Cc1cnc(C(=O)N2CCC[C@@H](Nc3ccc(C(F)(F)F)cn3)[C@@H]2C)c(-c2ncccn2)c1`, for which the Ki in assay [1] is 91 nM; in assay [2], 19 nM; in assay [3] it was 26 nM.
